Data published in patent US9643950B2, “Solid forms of {s-3-(4-amino-1-oxo-isoindolin-2-yl)(piperidine-3,4,4,5,5-d5)-2,6-dione}” (Concert Pharmaceuticals, Inc., priority 2012, dated 2017).
Converted amounts (≈) assume the structure as drawn. “Also recorded” adds a separate entry of the source. Read-outs that look alike come from different tables or passages of the source. One block for each molecule: values may come before it.

Experiments:
Format in all cases: physicochemical
[1] = Relative stability of Forms 1 and 3 in water/organic mixtures (seeded suspensions)
Experimental: A series of experiments were conducted to assess the relative stability of Forms 1 and 3. […] The suspensions were each seeded with a small amount of Form 3 (˜1 mg) and stirred until a complete form conversion occurred.

[2] = Dynamic vapor sorption (DVS) hygroscopicity
Experimental: DVS experiments were conducted on a Surface Measurement Systems DVS-HT at 25° C. The instrument was operated in step mode and the relative humidity was increased in 10% RH increments from 40% RH to 90% RH, then decreased from 90% RH to 0% RH, then increased from 0% RH to 90% RH, then decreased from 90% RH to 0% RH. An extra step at 75% RH was included in each cycle. The mass equilibrium criterion was set at 0.005% change in mass over time (dm/dt) prior to each humidity level. A minimum step time of 10 minutes and a maximum step time of 240 minutes were specified.

[3] = Physical (solid form) stability on storage or stirring, by PXRD; conditions: for Physical stability by PXRD: 40° C./75% RH for 6 days
Experimental: PXRD diffractograms were acquired using PANalytical X'Pert Pro diffractometer on Si zero-background wafers. All diffractograms were collected using a monochromatic Cu Kα (45 kV/40 mA) radiation and a step size of 0.02° 2θ.
Form 1 is a crystalline powder with a PXRD pattern indicated at FIG. 1. FT-Raman (FIG. 2) and FT-IR Spectra (FIG. 3) were also collected. […] HPLC analysis indicated high purity of the material (>99.9% AUC). […] (FIG. 4). The PXRD diffractogram of the material heated past the exothermic event (heating to 261° C. followed by isothermal hold for 7 min) indicates a racemization of D-(S)-lenalidomide, as confirmed by chiral HPLC analyses of a reference material. […] This conclusion is based on two simultaneously run experiments. In one experiment, […] was exposed to 40° C./75% RH. […] Moreover, even this formation of Form 3 may have been at least in part the result of condensation inside of the RH chamber towards the end of the experiment, as a result of which Form 1 became slightly wet.
PXRD (FIG. 6) and PLM microscopy analyses indicate Form 2 to be partially crystalline and phase-impure with amorphous content. Thermal analyses confirmed that the material loses 4.3% wt. upon heating up to 160° C. (FIG. 8). IR analysis of the volatile component released upon heating confirmed water. The loss of water corresponds to broad endothermic (50-100° C.) and exothermic (120-160° C.) events on the DSC trace (FIG. 8), indicating potential dehydration and crystallization, respectively. An FT-Raman spectrum is provided at FIG. 7.

[4] = Visually estimated solubility of Form 1 in an array of solvents
Experimental: Solubility of Form 1 was visually estimated in an array of different solvents. […] Where applicable, the undissolved solids were analyzed by PXRD to verify crystal form. The data are shown in and indicate that the solubility of Form 1 to be relatively low in water and common organic solvents, (<6 mg/mL), very high in dimethylsulfoxide (DMSO; >400 mg/mL), and moderate in water- or DMSO-containing binary solvent systems.
Solubility of Form 1 was visually estimated in an array of diverse solvents. […] Where applicable, the undissolved solids were analyzed by PXRD to verify crystal form. The data are shown in Table 2 and indicate that the solubility of Form 1 is relatively low in water and common organic solvents, (<6 mg/mL), very high in dimethylsulfoxide (DMSO; >400 mg/mL), and moderate in water- or DMSO-containing binary solvent systems.

[5] = HPLC analysis of degradation; conditions: material from rapid evaporation of methanol solution (rotovapped at 65° C.)
Experimental: HPLC analyses were conducted with an HP1100 system equipped with a G1131 Quad pump, G1367A autosampler, and G1315B diode array detector. Column: Luna C18(2) (50×2.0 mm, 3 μm). Mobile phase: 100% vol. water (0.05% vol. TFA) to 95% acetonitrile (0.05% vol. TFA) over 8 min and 2 min re-equilibration. Flow rate: 1 mL/min. Detection: 254 nm.

Produced Crystal Form ([1]; 1,4-Dioxane:Water 90:10% vol., water activity 0.7, 5 °C, seeded with Form 3): Form 3 | Produced Crystal Form ([1]; 1,4-Dioxane:Water 90:10% vol., water activity 0.7, 20 °C, seeded with Form 3): Form 1 | Produced Crystal Form ([1]; 1,4-Dioxane:Water 96.5:3.5% vol., water activity 0.5, 7 °C, seeded with Form 3): Form 1 | Produced Crystal Form ([1]; 1,4-Dioxane:Water 96.5:3.5% vol., water activity 0.5, 20 °C, seeded with Form 3): Form 1 | Produced Crystal Form ([1]; 1,4-Dioxane:Water 99:1% vol., water activity 0.2, 20 °C, seeded with Form 3): Form 1 | Water activity (αw) at which the form is the more stable ([1]; 20° C.): < 0.7 | Produced Crystal Form ([1]; Water, water activity 1.0, 5 °C, Form 1 suspension seeded with Form 3): Form 3 | Produced Crystal Form ([1]; Water, water activity 1.0, 20 °C, Form 1 suspension seeded with Form 3): Form 3 | Water activity (αw) at which the form is the more stable ([1]; lower temperatures (5, and 7° C.)): < 0.5 | DVS weight gain ([2]; between 0-90% RH, 25° C.): < 0.65 wt. % | Residual Solid (crystal form of undissolved solids by PXRD) ([4]; 1,4-Dioxane): Form 1 | solubility ([4]; 1,4-dioxane, 40 °C, organic solvent or mixture, thermodynamic from solid, read-out: Solubility at 40° C.): > 6000 µg/mL | Residual Solid (crystal form of undissolved solids by PXRD) ([4]; 2-Propanol): Form 1 | solubility ([4]; 2-propanol, 40 °C, organic solvent or mixture, thermodynamic from solid, read-out: Solubility at 40° C.): < 1000 µg/mL | Solubility at RT ([4]; DMSO, 20° C.): >400000 µg/mL | Residual Solid (crystal form of undissolved solids by PXRD) ([4]; Dichloromethane): Form 1 | Residual Solid (crystal form of undissolved solids by PXRD) ([4]; Ethyl Acetate): Form 1 | Residual Solid (crystal form of undissolved solids by PXRD) ([4]; Heptane): Form 1 | Residual Solid (crystal form of undissolved solids by PXRD) ([4]; Toluene): Form 1 | solubility ([4]; dichloromethane, 40 °C, organic solvent or mixture, thermodynamic from solid, read-out: Solubility at 40° C.): < 1000 µg/mL | solubility ([4]; ethyl acetate, 40 °C, organic solvent or mixture, thermodynamic from solid, read-out: Solubility at 40° C.): < 1000 µg/mL | solubility ([4]; heptane, 40 °C, organic solvent or mixture, thermodynamic from solid, read-out: Solubility at 40° C.): < 1000 µg/mL | solubility ([4]; organic solvent or mixture, thermodynamic from solid, 1,4-Dioxane, 20° C., read-out: Solubility at RT): < 1000 µg/mL | solubility ([4]; organic solvent or mixture, thermodynamic from solid, 2-Propanol: 10% vol. DMSO, 20° C., read-out: Solubility at RT): 1000 to 10000 µg/mL (≈ 3.78 to 37.8 mM) | solubility ([4]; organic solvent or mixture, thermodynamic from solid, 2-Propanol, 20° C., read-out: Solubility at RT): < 1000 µg/mL | solubility ([4]; organic solvent or mixture, thermodynamic from solid, Acetone, 20° C., read-out: Solubility at RT): 1000 to 6000 µg/mL (≈ 3.78 to 22.7 mM) | solubility ([4]; organic solvent or mixture, thermodynamic from solid, Acetonitrile: 10% vol. DMSO, 20° C., read-out: Solubility at RT): 10000 to 30000 µg/mL (≈ 37.8 to 114 mM) | solubility ([4]; organic solvent or mixture, thermodynamic from solid, Acetonitrile: 10% vol. Water, 20° C., read-out: Solubility at RT): 14000 to 17000 µg/mL (≈ 53 to 64.3 mM) | solubility ([4]; organic solvent or mixture, thermodynamic from solid, Acetonitrile, 20° C., read-out: Solubility at RT): 1000 to 6000 µg/mL (≈ 3.78 to 22.7 mM) | solubility ([4]; organic solvent or mixture, thermodynamic from solid, DMSO, 20° C., read-out: Solubility at RT): > 400000 µg/mL | solubility ([4]; organic solvent or mixture, thermodynamic from solid, Dichloromethane, 20° C., read-out: Solubility at RT): < 1000 µg/mL | solubility ([4]; organic solvent or mixture, thermodynamic from solid, Ethyl Acetate, 20° C., read-out: Solubility at RT): < 1000 µg/mL | solubility ([4]; organic solvent or mixture, thermodynamic from solid, Heptane, 20° C., read-out: Solubility at RT): < 1000 µg/mL | solubility ([4]; organic solvent or mixture, thermodynamic from solid, Methanol: 5% vol. Water, 20° C., read-out: Solubility at RT): 1000 to 10000 µg/mL (≈ 3.78 to 37.8 mM) | solubility ([4]; organic solvent or mixture, thermodynamic from solid, Methanol: 10% vol. Water, 20° C., read-out: Solubility at RT): 1000 to 10000 µg/mL (≈ 3.78 to 37.8 mM) | solubility ([4]; organic solvent or mixture, thermodynamic from solid, Methanol, 20° C., read-out: Solubility at RT): 1000 to 6000 µg/mL (≈ 3.78 to 22.7 mM) | solubility ([4]; organic solvent or mixture, thermodynamic from solid, Tetrahydrofuran, 20° C., read-out: Solubility at RT): 1000 to 6000 µg/mL (≈ 3.78 to 22.7 mM) | solubility ([4]; organic solvent or mixture, thermodynamic from solid, Toluene, 20° C., read-out: Solubility at RT): < 1000 µg/mL | solubility ([4]; thermodynamic from solid, Water, 20° C., read-out: Solubility at RT): 1000 to 6000 µg/mL (≈ 3.78 to 22.7 mM) | solubility ([4]; thermodynamic from solid, water and common organic solvents, 20° C., read-out: Solubility): < 6000 µg/mL | solubility ([4]; toluene, 40 °C, organic solvent or mixture, thermodynamic from solid, read-out: Solubility at 40° C.): < 1000 µg/mL | solubility ([4]; water- or DMSO-containing binary solvent systems, 20° C.): moderate
Compound: [2H]C1([2H])C(=O)NC(=O)[C@@]([2H])(N2Cc3c(N)cccc3C2=O)C1([2H])[2H] (single isomer, unassigned) [Form 1, 3-(4-amino-1-oxoisoindolin-2-yl)(piperidine-3,4,4,5,5-d5)-2,6-dione]
Physical stability by PXRD [3]: physically stable; also recorded: Form 1 as the major component, with only a trace of Form 3 being formed

Degradation by HPLC [5]: 2.5 % AUC
Compound: [2H]C1([2H])C(=O)NC(=O)[C@@]([2H])(N2Cc3c(N)cccc3C2=O)C1([2H])[2H] [Amorphous D-(S)-lenalidomide]

Time physically stable [3]: at least 24 hrs | Form obtained upon stirring in water ([3]; water, 12 hr at 5° C.): Form 3 formed
Compound: [2H]C1([2H])C(=O)NC(=O)[C@@]([2H])(N2Cc3c(N)cccc3C2=O)C1([2H])[2H] [Form 2]
Form conversion on storage ([3]; closed vial at room temperature, within 3 weeks): converts to a mixture of Forms 1 and 3; also recorded: converted to Forms 1 and 3

Water activity (αw) at which the form is the more stable ([1]; 20° C.): > 0.7 | DVS weight change ([2]; between 20-90% relative humidity, room temperature): no weight change | PXRD of residual solid after DVS ([2]; equilibrated at 0% RH for four hours): no change in solid form | Time physically stable ([3]; stored in a closed vial): at least 3 weeks
Compound: [2H]C1([2H])C(=O)NC(=O)[C@@]([2H])(N2Cc3c(N)cccc3C2=O)C1([2H])[2H] [Form 3]
DVS behaviour ([2]; below 20% relative humidity): dehydrate and re-hydrate with a relatively small hysteresis | Physical stability by PXRD [3]: about half of the solid converted to Form 1; also recorded: partial conversion to Form 1
